SMILES strings stand for the structures. Read-outs that look alike come from different tables or passages of the source.

Assay [1] deals with T1, Cyp21 enzyme (Human HEK 293-Cyp21 stable transfected cells) (Homo sapiens, UniProt P08686).
T1 construct: expressed in transfected cells
T1 sequence (P08686 1-495): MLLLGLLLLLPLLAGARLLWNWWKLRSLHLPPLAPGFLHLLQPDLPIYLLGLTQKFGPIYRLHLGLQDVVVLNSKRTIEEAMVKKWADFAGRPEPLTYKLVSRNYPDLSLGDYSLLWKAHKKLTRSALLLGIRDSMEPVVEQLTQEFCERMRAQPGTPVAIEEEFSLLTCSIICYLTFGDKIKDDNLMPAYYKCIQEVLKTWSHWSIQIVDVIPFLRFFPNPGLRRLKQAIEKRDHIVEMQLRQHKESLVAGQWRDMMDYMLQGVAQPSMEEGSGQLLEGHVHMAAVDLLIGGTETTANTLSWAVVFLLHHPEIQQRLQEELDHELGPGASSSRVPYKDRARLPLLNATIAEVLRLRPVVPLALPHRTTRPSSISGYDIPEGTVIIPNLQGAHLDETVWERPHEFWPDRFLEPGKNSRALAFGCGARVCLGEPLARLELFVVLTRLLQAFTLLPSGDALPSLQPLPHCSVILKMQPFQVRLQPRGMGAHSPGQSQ
Description: CYP21-HEK293 enzymatic assay (IC50) (Biological Example 11). It is filed as cell-based.

Assay [2] concerns the target T2, CYP17 (human testicular microsome) (Homo sapiens, UniProt P05093).
T2 construct: using microsomal fraction from human testis (Celsis Cat #S00110) as the enzyme source; tissue Celsis S00110; host or cells: human testis microsomal fraction
T2 sequence (P05093 1-508): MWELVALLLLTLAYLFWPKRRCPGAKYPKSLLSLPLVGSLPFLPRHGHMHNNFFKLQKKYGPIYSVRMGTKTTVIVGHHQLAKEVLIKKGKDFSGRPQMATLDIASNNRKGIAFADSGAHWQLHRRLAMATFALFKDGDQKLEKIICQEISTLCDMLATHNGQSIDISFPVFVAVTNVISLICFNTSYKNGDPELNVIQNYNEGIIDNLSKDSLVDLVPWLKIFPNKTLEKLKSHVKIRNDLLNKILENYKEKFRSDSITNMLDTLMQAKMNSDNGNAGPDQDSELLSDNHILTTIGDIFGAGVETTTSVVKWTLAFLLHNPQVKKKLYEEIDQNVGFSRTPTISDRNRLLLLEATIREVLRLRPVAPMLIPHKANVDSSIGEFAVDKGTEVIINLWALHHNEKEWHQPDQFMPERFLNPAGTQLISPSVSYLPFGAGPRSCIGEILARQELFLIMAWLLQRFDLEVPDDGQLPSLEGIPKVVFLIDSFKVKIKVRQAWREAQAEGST
Description: CYP17 enzymatic assay (% inhibition at 1 nM) (Biological Example 12). It is filed as biochemical. Conditions: compound at 1 nM.

The mark [3] stands for this setting: HEK 293-Cyp21 cells, read-out: CYP21-HEK293 enzymatic assay IC50 (Biological Example No. 11).
Where [4] appears, read: read-out: CYP17 enzymatic assay % inhibition at 1 nM (Biological Example No. 12).
[5] abbreviates: HEK 293-Cyp21 cells, read-out: Biological Example No. 11: CYP21-HEK293 enzymatic assay IC50.
Setting [6] is: read-out: Biological Example No. 12: CYP17 enzymatic assay % inhibition at 1 nM.
The mark [7] stands for this setting: HEK 293-Cyp21 stable transfected cells, read-out: CYP21-HEK293 enzymatic assay IC50 (Biological Example No. 11).

Usually IC50 stands for the concentration at which inhibition is half-maximal. As a reminder, the inhibition is the drop in the measured response relative to a control, in per cent. In the case of `Cc1cccc(C)c1C(=O)O[C@H]1CC[C@@]2(C)C(=CCC3C4=CC=C(c5cccnc5)[C@@]4(C)CCC32)C1` (stereo partly drawn) [Compound 196, (3S,10R,13S)-10,13-dimethyl-17-(pyridin-3-yl)-2,3,4,7,8,9,10,11,12,13-decahydro-1H-cyclopenta[a]phenanthren-3-yl 2,6-dimethylbenzoate], in assay [1] (setting [3]), the IC50 was more than 1000 nM. In addition, the inhibition at 0.001 µM in assay [2] (setting [4]) is less than 10%.
For `C[C@]12CCC3C(CC=C4C=CCC[C@@]43C)C1=CC=C2c1cccnc1` (stereo partly drawn) [Compound 197, 3-((10R,13S)-10,13-dimethyl-2,7,8,9,10,11,12,13-octahydro-1H-cyclopenta[a]phenanthren-17-yl)pyridine], in assay [1] (setting [3]), the IC50 was more than 1000 nM. In addition, the inhibition at 0.001 µM in assay [2] (setting [4]) fell in the range of 10 to 50%.
In the same order, the values of `Cc1cccc(C)c1C(=O)O[C@@H]1CC[C@@]2(C)C(=CCC3C4=CC=C(c5cccnc5)[C@@]4(C)CCC32)C1` (stereo partly drawn) [Compound 198, (3R,10R,13S)-10,13-dimethyl-17-(pyridin-3-yl)-2,3,4,7,8,9,10,11,12,13-decahydro-1H-cyclopenta[a]phenanthren-3-yl 2,6-dimethylbenzoate] are more than 1000 nM and less than 10%.
With `C[C@]12CC[C@@H](NS(=O)(=O)C3CC3)CC1=CC[C@@H]1[C@@H]2CC[C@]2(C)C(c3cccnc3)=CC[C@@H]12` [Compound 228, N-((3R,10R,13S)-10,13-dimethyl-17-(pyridin-3-yl)-2,3,4,7,8,9,10,11,12,13,14,15-dodecahydro-1H-cyclopenta[a]phenanthren-3-yl)cyclopropanesulfonamide], the IC50 in assay [1] (setting [3]) is more than 1000 nM. In assay [2] (setting [4]), the inhibition at 0.001 µM was in the range of 10 to 50%.
As for `CC1=C2CCC3C4=CC=C(c5cccnc5)[C@@]4(C)CCC3[C@@]2(C)CCC1=O` (stereo partly drawn) [Compound 296, (10R,13S)-4,10,13-trimethyl-17-(pyridin-3-yl)-6,7,8,9,10,11,12,13-octahydro-1H-cyclopenta[a]phenanthren-3(2H)-one], the IC50 in assay [1] (setting [3]) is more than 100 nM. The inhibition at 0.001 µM in assay [2] (setting [4]) is more than 50%.
Take `CC1C(=O)CC[C@@]2(C)C1CC[C@@H]1[C@@H]2CC[C@]2(C)C(c3cccnc3)=CC[C@@H]12` (stereo partly drawn) [Compound 303, (10R,13S)-4,10,13-trimethyl-17-(pyridin-3-yl)-4,5,6,7,8,9,10,11,12,13,14,15-dodecahydro-1H-cyclopenta[a]phenanthren-3(2H)-one]: the IC50 in assay [1] (setting [5]) was more than 1000 nM. In addition, the inhibition at 0.001 µM in assay [2] (setting [6]) was 10 to 50%.
On to `CC1CC2C3=CC=C(c4ccc(F)nc4)[C@@]3(C)CCC2[C@@]2(C)CCC(=O)C=C12` (stereo partly drawn) [Compound 326, (10R,13S)-17-(6-fluoropyridin-3-yl)-6,10,13-trimethyl-6,7,8,9,10,11,12,13-octahydro-1H-cyclopenta[a]phenanthren-3(2H)-one], for which, in assay [1] (setting [5]), the IC50 was more than 1000 nM. Also, the inhibition at 0.001 µM in assay [2] (setting [6]) was 10 to 50%.
`CC1CC2C3=CC=C(c4cncc(C(F)F)c4)[C@@]3(C)CCC2[C@@]2(C)CCC(=O)C=C12` (stereo partly drawn) [Compound 328, (10R,13S)-17-(5-(difluoromethyl)pyridin-3-yl)-6,10,13-trimethyl-6,7,8,9,10,11,12,13-octahydro-1H-cyclopenta[a]phenanthren-3(2H)-one]: the IC50 in assay [1] (setting [5]) was more than 1000 nM. In addition, the inhibition at 0.001 µM in assay [2] (setting [6]) is less than 10%.
Regarding `C[C@]12CCC(=O)C=C1C(C1CC1)C[C@@H]1[C@@H]2CC[C@]2(C)C(c3cncc(F)c3)=CC[C@@H]12` (stereo partly drawn) [Compound 331, (10R,13S)-6-cyclopropyl-17-(5-fluoropyridin-3-yl)-10,13-dimethyl-6,7,8,9,10,11,12,13,14,15-decahydro-1H-cyclopenta[a]phenanthren-3(2H)-one], the IC50 in assay [1] (setting [5]) is more than 1000 nM. In assay [2] (setting [6]), the inhibition at 0.001 µM lay within 10 to 50%.
Regarding `CCC1CC2C(CC[C@]3(C)C(c4cccnc4)=CCC23)[C@@]2(C)CCC(=O)C=C12` (stereo partly drawn) [Compound 332, (10R,13S)-6-ethyl-10,13-dimethyl-17-(pyridin-3-yl)-6,7,8,9,10,11,12,13,14,15-decahydro-1H-cyclopenta[a]phenanthren-3(2H)-one], in assay [1] (setting [5]), the IC50 was in the range of 10 to 100 nM. In addition, the inhibition at 0.001 µM in assay [2] (setting [6]) lay within 10 to 50%.
As for `CCC1CC2C(CC[C@]3(C)C(c4cncc(F)c4)=CCC23)[C@@]2(C)CCC(=O)C=C12` (stereo partly drawn) [Compound 333, (10R,13S)-6-ethyl-17-(5-fluoropyridin-3-yl)-10,13-dimethyl-6,7,8,9,10,11,12,13,14,15-decahydro-1H-cyclopenta[a]phenanthren-3(2H)-one], the IC50 in assay [1] (setting [5]) is more than 1000 nM. The inhibition at 0.001 µM in assay [2] (setting [6]) was less than 10%.
For `CCC1CC2C(CC[C@]3(C)C(c4cncc(C(F)F)c4)=CCC23)[C@@]2(C)CCC(=O)C=C12` (stereo partly drawn) [Compound 334, (10R,13S)-17-(5-(difluoromethyl)pyridin-3-yl)-6-ethyl-10,13-dimethyl-6,7,8,9,10,11,12,13,14,15-decahydro-1H-cyclopenta[a]phenanthren-3(2H)-one], the IC50 in assay [1] (setting [5]) was more than 1000 nM. Besides, in assay [2] (setting [6]), the inhibition at 0.001 µM is less than 10%.
With `C[C@]12CCC(=O)C=C1C(n1ccnn1)CC1C2CC[C@]2(C)C(c3cccnc3)=CCC12` (stereo partly drawn) [Compound 335, (10R,13S)-10,13-dimethyl-17-(pyridin-3-yl)-6-(1H-1,2,3-triazol-1-yl)-6,7,8,9,10,11,12,13,14,15-decahydro-1H-cyclopenta[a]phenanthren-3(2H)-one], the IC50 in assay [1] (setting [5]) is more than 1000 nM. Also, the inhibition at 0.001 µM in assay [2] (setting [6]) is 10 to 50%.
As to `C[C@]12CCC(=O)C=C1C(n1nccn1)CC1C2CC[C@]2(C)C(c3cccnc3)=CCC12` (stereo partly drawn) [Compound 336, (10R,13S)-10,13-dimethyl-17-(pyridin-3-yl)-6-(2H-1,2,3-triazol-2-yl)-6,7,8,9,10,11,12,13,14,15-decahydro-1H-cyclopenta[a]phenanthren-3(2H)-one], the IC50 in assay [1] (setting [5]) is more than 1000 nM. In addition, the inhibition at 0.001 µM in assay [2] (setting [6]) is less than 10%.
`C[C@]12CCC(=O)C=C1C(c1ccccc1)CC1C2CC[C@]2(C)C(c3cncc(F)c3)=CCC12` (stereo partly drawn) [Compound 337, (10R,13S)-17-(5-fluoropyridin-3-yl)-10,13-dimethyl-6-phenyl-6,7,8,9,10,11,12,13,14,15-decahydro-1H-cyclopenta[a]phenanthren-3(2H)-one]: the IC50 in assay [1] (setting [5]) was more than 1000 nM. In assay [2] (setting [6]), the inhibition at 0.001 µM was less than 10%.
Turning to `C[C@]12CCC(=O)C=C1C(c1ccccc1)CC1C2CC[C@]2(C)C(c3cccnc3)=CCC12` (stereo partly drawn) [Compound 338, (10R,13S)-10,13-dimethyl-6-phenyl-17-(pyridin-3-yl)-6,7,8,9,10,11,12,13,14,15-decahydro-1H-cyclopenta[a]phenanthren-3(2H)-one], the IC50 in assay [1] (setting [5]) is more than 1000 nM. Moreover, the inhibition at 0.001 µM in assay [2] (setting [6]) is less than 10%.
On to `C[C@]12CCCN(S(C)(=O)=O)CC1CCC1C2CC[C@]2(C)C(n3cncc3C#N)=CCC12` (stereo partly drawn) [Compound 431, 1-((5aR,7aS)-5a,7a-dimethyl-2-(methylsulfonyl)-1,2,3,4,5,5a,5b,6,7,7a,10,10a,10b,11,12,12a-hexadecahydrocyclopenta[5,6]naphtho[2,1-c]azepin-8-yl)-1H-imidazole-5-carbonitrile], for which the IC50 in assay [1] (setting [7]) was more than 1000 nM.
As to `C[C@]12CCN(S(C)(=O)=O)CCC1CCC1C2CC[C@]2(C)C(n3cncc3C#N)=CCC12` (stereo partly drawn) [Compound 432, 1-((5aS,7aS)-5a,7a-dimethyl-3-(methylsulfonyl)-1,2,3,4,5,5a,5b,6,7,7a,10,10a,10b,11,12,12a-hexadecahydrocyclopenta[5,6]naphtho[1,2-d]azepin-8-yl)-1H-imidazole-5-carbonitrile], the IC50 in assay [1] (setting [7]) is more than 1000 nM.
As for `C[C@]12CCN(S(C)(=O)=O)CCC1CC[C@@H]1[C@@H]2CC[C@]2(C)C(n3ccnc3)=CC[C@@H]12` (stereo partly drawn) [Compound 438, (5aS,7aS)-8-(1H-imidazol-1-yl)-5a,7a-dimethyl-3-(methylsulfonyl)-1,2,3,4,5,5a,5b,6,7,7a,10,10a,10b,11,12,12a-hexadecahydrocyclopenta[5,6]naphtho[1,2-d]azepine], the IC50 in assay [1] (setting [7]) is more than 1000 nM.
On the same count and under the same terms, the same measure for `C[C@]12CCC3C(CCC4CCN(S(C)(=O)=O)CC[C@@]43C)C1=CC=C2n1ccnc1` (stereo partly drawn) [Compound 489, (5aS,7aS)-8-(1H-imidazol-1-yl)-5a,7a-dimethyl-3-(methylsulfonyl)-1,2,3,4,5,5a,5b,6,7,7a,10b,11,12,12a-tetradecahydrocyclopenta[5,6]naphtho[1,2-d]azepine]: more than 1000 nM.

The values above are taken from patent US20130252930A1 (BIOMARIN PHARMACEUTICAL INC., priority 2010, published 2013).
